From US20040242590A1, “Pharmaceutical composition comprising gamma-butyrobetaine” (priority 2001, published 2004)
Entries after “also recorded” stand apart in the source; their conditions may differ. Where a name gives a salt, the structure may show the parent alone.

Key:
[1] = test system: intracorporeal pressure (corpus cavernosum penis); test: intracorporeal pressure in narcotized rats, intracavernous injection; format: in vivo; details: for Increase of intracorporeal pressure, % of papaverine: in % of the increase produced by papaverine
Description: (§1) The influence of the experimental substances on the penile erection was evaluated using the experimental model, where changes of intracorporeal pressure was measured (Chen K K et al. J Urol, 1992;147:1124). Rats were anesthetized by sodium pentobarbital (50 mg/kg i.p. plus additionally 8 mg/kg/h i.v.). Body temperature was kept at 37-37.4° C. (rectal control) by heating lamp. Endotracheal tube was inserted to assure adequate respiration under anesthesia. Number 25 needle filled with heparinized saline was connected to pressure transducer and introduced into corpus cavernosum penis. Intracavernous pressure and II standard lead on an ECG was continuously recorded on physiograph DMP-4B (Narco Bio-Systems, USA). In some experiments arterial pressure in common carotid artery was also recorded. The effects of experimental substances were determined both at intravenous and intracavernous introduction route. For the intracorporeal injection the substances were dissolved in isotonic (0.9%) NaCl solution and the dose introduced in 0.05 ml of liquid. […] Gamma-butyrobetaine (GBB) was introduced separately and in combination with THP or phosphodiesterase inhibitor, in particular, sildenafil. Gamma-butyrobetaine (GBB) (intracavernous injection 0.02-0.1 mg per rat, usually 0.05 mg per rat; intravenously 2.0 mg/kg) and THP (intracavernous injection 0.2 mg per rat; intravenously 10.0 mg/kg) were introduced separately and as combination (GBB+THP).

[2] = test system: intracavernous pressure (corpus cavernosum penis); test: intracavernous pressure in narcotized rats, intravenous injection; format: in vivo; details: for effect on intracorporeal pressure (in words): intravenous; for Changes of intracavernous pressure / Duration of effect / Reflectory increase of intracavernous pressure: intravenously: GBB 2.0 mg/kg, THP 10.0 mg/kg, sildenafil 3.0 mg/kg, papaverine 2.0 mg/kg
Description: as §1, with “Adult male rats, weighing 300-410 g were used. The influence” for “The influence”, “combination (GBB+THP). […] Since the intracavernous injection is not popular due to inconvenience to patient, intravenous route was selected for further evaluation.” for “combination (GBB+THP).”

[3] = test system: copulating activity of male rats; test: rat copulating behaviour in state of physiological depression; format: in vivo, Wistar rats
Description: The pharmacological effects of GBB, THP and their combination on the sexual activity of mammals was investigated by a model based on rat copulating behaviour in state of physiological depression.
Experiments were conducted on adult Wistar rats of both sexes with initial body weight of 300-330 g. During the experiment, the animals were kept in standard crates in groups of 6. The feed was a standartized diet R70 (LABFOR, Lactamin AB, Sweden). The room temperature was kept at 21-23° C., relative humidity at 65±10%, 12 hour light/darkness cycle. During one week before the experiment it was established that the average water consumption by the rats was 8.2-12% (average —10%) of their body mass.
Male rats were distributed randomly into 4 groups, each of 6 animals, and supplied for 6 weeks with the following aqueous solutions:
Group 1 (Control Group)—ding water without any additives;
Group 2 (GBB Group)—drinking water was supplemented by gamma-butyrobetaine (0.015% by weight), resulting in the average daily gamma-butyrobetaine intake of 15 mg/kg;
Group 3 (THP Group)—drinking water was supplemented by THP (0.06% by weight), resulting in the average daily THP intake of 60 mg/kg;
Group 4 (GBB+THP Group)—drinking water was supplemented by THP (0.06% by weight) and gamma-butyrobetaine (0.015% by weight), resulting in the average daily […]) intake of 60 mg/kg and gamma-butyrobetaine intake of 15 mg/kg.
The copulating activity of male rats was tested four times: after one week, after four weeks, after six weeks and 48-50 hours after the discontinuation of substance intake, when all animals were receiving drinking water without additives.
The tests were conducted between 10 and 12 a.m. 6 male rats of one group were placed into a clean, well illuminated crate (box). After 5 min. adaptation period 2 female rats were placed into the box for 10 minutes. For each male rat the following data were collected:
1) copulating intensity (number of copulations during the exposition period);
3) postcoital period—the behaviour of male rats during 5 min. period after the removal of females. The postcoital behaviour was characterized by following marks: 0—the animal is passive, lays down; 1—the rat is quiet; grooming; 2—the rat is mobile, rutting; 3—the animal is active, aggressive.
The female rats used were in the estrus phase, induced by i.p. injection of 0.2 ml 0.1% estradiol dipropionate 48 h before the test.

[4] = subc.; cited from earlier work
[5] = 1 week of therapy, drinking water, GBB 15 mg/kg daily, THP 60 mg/kg daily
[6] = 1 week of therapy, drinking water, GBB 15 mg/kg daily, THP 60 mg/kg daily, 10 min exposition
[7] = 4 weeks of therapy, behaviour marks 0-3
[8] = 4 weeks of therapy, drinking water, GBB 15 mg/kg daily, THP 60 mg/kg daily
[9] = 6 weeks of therapy, behaviour marks 0-3
[10] = 6 weeks of therapy, drinking water, GBB 15 mg/kg daily, THP 60 mg/kg daily
[11] = Post-therapy (48-50 hours after discontinuation)
[12] = Post-therapy (48-50 hours after discontinuation), behaviour marks 0-3

| Compound | Increase of intracorporeal pressure, % of papaverine ([1]; dose 0.2 mg per rat) [%] | effect on intracorporeal pressure (in words) [2] | Changes of intracavernous pressure [2] [mm Hg] | Duration of effect [2] [min] | Reflectory increase of intracavernous pressure [2] [mm Hg] | delay time before attempts of mounting [3, 5] [min] | number of copulations [3, 6] | rat post-coital agitation period [3, 7] | number of copulations [3, 8] | number of mounting attempts of male rats [3, 8] | rat post-coital agitation period [3, 9] | delay time before attempts of mounting [3, 10] [min] | number of mounting attempts of male rats [3, 10] | delay time before attempts of mounting [3, 11] [min] | number of copulations [3, 11] | number of mounting attempts of male rats [3, 11] | rat post-coital agitation period [3, 12] | effect on intracorporeal pressure (in words) [1] | other results |
| --- | --- | --- | --- | --- | --- | --- | --- | --- | --- | --- | --- | --- | --- | --- | --- | --- | --- | --- | --- |
| COc1ccc(Cc2nccc3cc(OC)c(OC)cc23)cc1OC [Papaverine, Papaverine hydrochloride] | 100 | little effect | 0.6 ± 0.6 | 0.9 ± 0.9 | 0.3 ± 0.3 |  |  |  |  |  |  |  |  |  |  |  |  |  | Duration of effect ([1]; dose 0.2 mg per rat): 8.8 ± 1.4 min; Increase of intracorporeal pressure ([1]; dose 0.2 mg per rat): 36.75 ± 4.1 mmHg |
| C[N+](C)(C)NCCC(=O)[O-] [THP, 3-(2,2,2-trimethylhydrazinium)propionate] | 7.3 | little effect | 1.3 ± 0.9 | 0.9 ± 0.5 | 2.7 ± 1.2 | 5.3 ± 1.0 | 0.5 ± 0.3 | 1.4 ± 0.5 | 1.2 ± 0.4 | 3.0 ± 0.7 | 1.8 ± 0.3 | 2.3 ± 0.5 | 3.7 ± 0.5 | 2.4 ± 0.7 | 1.0 ± 0.3 | 3.4 ± 0.7 | 1.2 ± 0.4 | did not produce significant changes | rat post-coital agitation period ([3]; 1 week of therapy, behaviour marks 0-3 during 5 min after removal of females): 1.0 ± 0.4; number of mounting attempts of male rats [3, 6]: 2.7 ± 0.6; delay time before attempts of mounting [3, 8]: 2.1 ± 0.5 min; number of copulations [3, 10]: 0.8 ± 0.3 |
| C[N+](C)(C)CCCC(=O)[O-] [GBB, gamma-butyrobetaine] |  | highly efficient |  | 2.8 ± 0.7 |  | 3.7 ± 0.9 | 0.8 ± 0.3 | 1.2 ± 0.3 | 1.3 ± 0.5 | 3.7 ± 0.7 | 1.5 ± 0.4 | 2.8 ± 0.9 | 3.3 ± 0.6 | 2.6 ± 0.6 | 0.7 ± 0.2 | 3.2 ± 0.5 | 1.2 ± 0.3 | pronounced dose-dependent, but relatively short-termed increase; also recorded: inferior to that of papaverine | Increase of intracorporeal pressure, % of papaverine ([1]; dose 0.02 mg per rat): 30.6%; Increase of intracorporeal pressure ([1]; dose 0.05 mg per rat): 31.5 ± 5.1 mmHg; Increase of intracorporeal pressure, % of papaverine ([1]; dose 0.05 mg per rat): 85.7%; LD50 [4]: 7000 mg/kg |
| CCCc1nn(C)c2c(=O)[nH]c(-c3cc(S(=O)(=O)N4CCN(C)CC4)ccc3OCC)nc12 [Sildenafil, sildenafil] |  |  |  | 2.5 ± 1.1 |  |  |  |  |  |  |  |  |  |  |  |  |  |  | Duration of effect ([1]; dose 0.15 mg per rat): 7.5 ± 2.7 min; Increase of intracorporeal pressure ([1]; dose 0.15 mg per rat): 38.5 ± 7.3 mmHg; Increase of intracorporeal pressure, % of papaverine ([1]; dose 0.15 mg per rat): 104.8% |
